# According to US12070455B2, “Thienopyrrole compounds” (Gilead Sciences, Inc., priority 2021, dated 2024):
# Key:
# TLR8 = target: T1, TLR8 (Homo sapiens, UniProt Q9NR97); assay: TLR8 human peripheral blood mononuclear cell (PBMC) cell-based assay; conditions: human PBMCs; 1 h with antagonist, then TLR8 agonist Compound A 800 nM for 6 h; cytokines (TNFa and IL12p40) in supernatant; read-out: TLR-8 EC50
# T1 construct: Human peripheral blood mononuclear cells (PBMCs) consist of lymphocytes, monocytes and dendritic cells that express TLR7, TLR8 and TLR9; endogenous in cells; host or cells: cryopreserved human PBMCs from healthy donors
# T1 sequence (Q9NR97 27-1041): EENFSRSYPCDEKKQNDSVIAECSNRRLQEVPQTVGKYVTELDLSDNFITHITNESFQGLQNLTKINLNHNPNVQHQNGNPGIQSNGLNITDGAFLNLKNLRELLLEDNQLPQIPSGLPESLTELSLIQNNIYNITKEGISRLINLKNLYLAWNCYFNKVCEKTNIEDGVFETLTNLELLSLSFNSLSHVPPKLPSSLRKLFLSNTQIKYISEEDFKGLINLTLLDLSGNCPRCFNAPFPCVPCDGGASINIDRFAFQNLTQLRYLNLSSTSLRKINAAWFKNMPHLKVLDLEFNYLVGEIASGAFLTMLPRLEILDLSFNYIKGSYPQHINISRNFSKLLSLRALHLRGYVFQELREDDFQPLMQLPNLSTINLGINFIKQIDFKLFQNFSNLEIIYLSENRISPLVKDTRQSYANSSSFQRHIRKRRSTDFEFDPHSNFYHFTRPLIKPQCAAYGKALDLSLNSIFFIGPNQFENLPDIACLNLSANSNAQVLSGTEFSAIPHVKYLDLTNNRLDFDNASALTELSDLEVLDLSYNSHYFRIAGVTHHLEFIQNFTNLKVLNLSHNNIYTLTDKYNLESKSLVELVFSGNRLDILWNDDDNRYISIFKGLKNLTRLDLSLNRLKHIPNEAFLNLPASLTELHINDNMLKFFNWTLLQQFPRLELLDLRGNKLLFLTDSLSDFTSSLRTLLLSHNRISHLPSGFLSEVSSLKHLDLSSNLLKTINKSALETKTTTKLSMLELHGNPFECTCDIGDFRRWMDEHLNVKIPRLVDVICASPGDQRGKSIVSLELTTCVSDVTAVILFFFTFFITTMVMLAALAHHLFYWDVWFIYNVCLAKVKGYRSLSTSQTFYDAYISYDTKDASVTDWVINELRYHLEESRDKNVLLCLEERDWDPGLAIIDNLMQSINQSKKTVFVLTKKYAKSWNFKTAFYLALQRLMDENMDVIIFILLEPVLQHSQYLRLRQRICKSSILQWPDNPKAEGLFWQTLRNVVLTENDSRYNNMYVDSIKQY
# Description: TLR8 Human Peripheral Blood Mononuclear Cell (PBMC) Cell-Based Assay
# Cryopreserved human PBMCs from healthy donors were thawed and resuspended in RPMI-1640 media with L-glutamine (Corning) supplemented with 10% Fetal Bovine Serum (Hyclone) and 1× Penicillin-Streptomycin (Corning). After counting, the cell density was adjusted to 2 million cells/ml and incubated for 1 hour at 37° C., 5% CO2 for recovery. Following the recovery, the cells were plated by adding 50 μl per well (100,000 cells) to 384-well cell culture plates (Greiner) containing 250 nl of test antagonists in 100% DMSO per well, in a 10 points dose response in quadruplicates. PBMCs were incubated in the presence of antagonists for one hour at 37° C., 5% CO2 before being stimulated with TLR8 agonist. Compound A (Gilead Sciences, U.S. Pat. No. 10,285,990) was used as the TLR8 agonist at a final concentration of 800 nM. PBMCs were incubated in the presence of antagonist and the TLR8 agonist for an additional 6 hours at 37° C., 5% CO2. At the end of the incubation, the cell culture plates were centrifuged at 500 g for 5 min, and the cell culture supernatant was collected. The level of cytokines (TNFa and IL12p40) in the supernatant was measured by electrochemiluminescence immunoassays (Mesoscale Discovery) following manufacturer's recommended protocols. The level of cytokine measured was plotted against the antagonist concentration and fitted to a sigmoidal function to determine the EC50, which are shown below in Table 6.
# TLR7 = target: T2, TLR7 (Homo sapiens, UniProt Q9NYK1); assay: TLR7 human peripheral blood mononuclear cell (PBMC) cell-based assay; conditions: human PBMCs; 1 h with test antagonist, then TLR7 agonist GS-986 400 nM for 6 h; cytokines (IL-6 and IFNα) in supernatant; read-out: TLR-7 EC50
# T2 construct: Human peripheral blood mononuclear cells (PBMCs) consist of lymphocytes, monocytes and dendritic cells that express TLR7, TLR8 and TLR9; endogenous in cells; host or cells: cryopreserved human PBMCs from healthy donors
# T2 sequence (Q9NYK1 27-1049): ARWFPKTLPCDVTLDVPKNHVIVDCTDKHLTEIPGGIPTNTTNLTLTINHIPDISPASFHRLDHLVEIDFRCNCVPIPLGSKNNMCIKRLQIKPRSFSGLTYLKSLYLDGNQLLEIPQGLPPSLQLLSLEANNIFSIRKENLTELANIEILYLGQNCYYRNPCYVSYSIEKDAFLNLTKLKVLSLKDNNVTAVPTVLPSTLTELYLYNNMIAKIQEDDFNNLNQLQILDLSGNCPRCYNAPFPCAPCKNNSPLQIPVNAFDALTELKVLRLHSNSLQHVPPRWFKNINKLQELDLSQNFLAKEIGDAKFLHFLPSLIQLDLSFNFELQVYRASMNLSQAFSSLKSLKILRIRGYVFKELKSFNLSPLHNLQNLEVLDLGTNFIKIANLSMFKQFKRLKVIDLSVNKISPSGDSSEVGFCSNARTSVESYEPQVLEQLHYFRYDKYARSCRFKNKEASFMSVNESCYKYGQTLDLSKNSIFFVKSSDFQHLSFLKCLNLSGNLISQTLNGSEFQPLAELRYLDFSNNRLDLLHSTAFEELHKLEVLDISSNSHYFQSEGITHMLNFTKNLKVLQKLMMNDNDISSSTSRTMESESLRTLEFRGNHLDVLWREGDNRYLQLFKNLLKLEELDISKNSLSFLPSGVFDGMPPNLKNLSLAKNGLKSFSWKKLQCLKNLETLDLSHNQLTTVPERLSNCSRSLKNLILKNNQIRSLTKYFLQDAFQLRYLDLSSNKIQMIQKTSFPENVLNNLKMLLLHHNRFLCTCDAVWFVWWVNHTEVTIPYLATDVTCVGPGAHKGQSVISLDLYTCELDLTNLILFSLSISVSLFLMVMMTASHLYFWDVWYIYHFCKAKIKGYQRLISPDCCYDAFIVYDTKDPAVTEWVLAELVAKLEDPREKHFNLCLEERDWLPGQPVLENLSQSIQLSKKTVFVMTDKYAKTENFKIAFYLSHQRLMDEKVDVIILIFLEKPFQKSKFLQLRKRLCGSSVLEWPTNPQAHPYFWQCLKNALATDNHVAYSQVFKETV
# From the text: TLR7/9 Human Peripheral Blood Mononuclear Cell (PBMC) Cell-Based Assay
# Human peripheral blood mononuclear cells (PBMCs) consist of lymphocytes, monocytes and dendritic cells that express TLR7, TLR8 and TLR9. These cells respond to TLR7, TLR8 and TLR9 ligand stimulation and produce cytokines and chemokines in vitro and in vivo. Human PBMCs are therefore suitable to be used in a cell-based assay to assess the in vitro potency of a TLR 7, 8, and/or 9 antagonist.
# Cryopreserved human PBMCs from healthy donors were thawed and resuspended in RPMI-1640 media with L-glutamine (Corning) supplemented with 10% Fetal Bovine Serum (Hyclone) and 1× Penicillin-Streptomycin (Corning). After counting, the cell density was adjusted to 2 million cells/ml and incubated for 1 hour at 37° C., 5% CO2 for recovery. Following the recovery, the cells were plated by adding 50 μl per well (100,000 cells) to 384-well cell culture plates (Greiner) containing 250 nl of test antagonists in 100% DMSO per well, in a 10 points dose response in quadruplicates. PBMCs were incubated in the presence of test antagonists for one hour at 37° C., 5% CO2 before being stimulated with a TLR7 or TLR9 agonist. GS-986 (Gilead Sciences) was used as the TLR7 agonist at a final concentration of 400 nM. ODN-2216 (InvivoGen) was used as the TLR9 agonist at a final concentration of 3 μM. PBMCs were incubated in the presence of the test antagonist and the TLR7 (or TLR9) agonist for an additional 6 hours at 37° C., 5% CO2. At the end of the incubation, the cell culture plates were centrifuged at 500 g for 5 min, and the cell culture supernatant was collected. The level of cytokines (IL-6 and IFNα) in the supernatant was measured by electrochemiluminescence immunoassays (Mesoscale Discovery) following manufacturer's recommended protocols. The level of cytokine measured was plotted against the test antagonist concentration and fitted to a sigmoidal function to determine the EC50, which are shown below in Table 6.
Compound,EC50 (TLR8),EC50 (TLR7)
"Cc1nc2c3c(c(-c4[nH]c5sc([C@@H]6C[C@@H]7C[C@H]6CN7CC(N)=O)c(C)c5c4C(C)C)cn2n1)COC3 [Example 43, 2-((1S,4R,5R)-5-(4-isopropyl-3-methyl-5-(2-methyl-7,9-dihydrofuro[3,4-c][1,2,4]triazolo[1,5-a]pyridin-6-yl)-6H-thieno[2,3-b]pyrrol-2-yl)-2-azabicyclo[2.2.1]heptan-2-yl)acetamide]",2.05 nM,1.1 nM
Cc1nc2c3c(c(-c4[nH]c5sc(C6CCN(CC(N)=O)CC6)c(C)c5c4C(C)C)cn2n1)COC3 [Example 44],135 nM,4.09 nM
Cc1c(C2CCN(CC(N)=O)CC2)sc2[nH]c(-c3cn4ncnc4c4c3COC4)c(C(C)C)c12 [Example 45],63.6 nM,4 nM
Cc1nc2c3c(c(-c4[nH]c5sc([C@@H]6C[C@H]7CC[C@@H](C6)N7CC(N)=O)c(C)c5c4C(C)C)cn2n1)COC3 [Example 46],77.9 nM,1.21 nM
Cc1c([C@@H]2C[C@@H]3C[C@H]2CN3CC(N)=O)sc2[nH]c(-c3cn4ncnc4c4c3COC4)c(C(C)C)c12 [Example 48],0.36 nM,0.39 nM
Cc1c([C@@H]2C[C@H]3CC[C@@H](C2)N3CC(N)=O)sc2[nH]c(-c3cn4ncnc4c4c3COC4)c(C(C)C)c12 [Example 49],15.2 nM,0.41 nM
Cc1nc2c3c(c(-c4[nH]c5sc(C6CCN(CC(N)=O)CC6)c(C)c5c4C(C)C)cn2n1)CCC3 [Example 50],34.6 nM,0.78 nM

# The remaining lines, values ahead:
EC50 (TLR8),EC50 (TLR7),Compound
96.6 nM,2.46 nM,"Cc1nc2c3c(c(-c4[nH]c5sc(C6CCN(C(=O)[C@H]7COCCN7)CC6)c(C)c5c4C(C)C)cn2n1)COC3 [Example 51, (R)-(4-(4-isopropyl-3-methyl-5-(2-methyl-7,9-dihydrofuro[3,4-c][1,2,4]triazolo[1,5-a]pyridin-6-yl)-6H-thieno[2,3-b]pyrrol-2-yl)piperidin-1-yl)(morpholin-3-yl)methanone]"
26.7 nM,1.17 nM,Cc1c(C2CCN(C(=O)[C@H]3COCCN3)CC2)sc2[nH]c(-c3cn4ncnc4c4c3COC4)c(C(C)C)c12 [Example 52]
16.2 nM,0.62 nM,Cc1nc2c3c(c(-c4[nH]c5sc(C6CCN(C(=O)[C@H]7COCCN7)CC6)c(C)c5c4C(C)C)cn2n1)CCC3 [Example 53]
